Where a SMILES comes first, the peptide text is derived from it. The star is where a group is joined. Palmitoyl = CCCCCCCCCCCCCCCC(=O)*
Experiments:
[1] = molecular target: T1, PAR1 (Homo sapiens, UniProt P25116); assay: NT-proBNP plasma levels in heart failure subset of TRIP-PCI; type: in vivo; settings: 24 hours after single dose (0.3 or 0.5 mg/kg combined), HF patients n=5, P=0.02
T1 construct: delivered intravenously in 100 patients with coronary artery disease (CAD) and acute coronary syndrome (ACS) undergoing cardiac catheterization; endogenous in cells; host or cells: patients of the TRIP-PCI trial (platelets ex vivo; whole body in vivo)
T1 sequence (P25116 22-425): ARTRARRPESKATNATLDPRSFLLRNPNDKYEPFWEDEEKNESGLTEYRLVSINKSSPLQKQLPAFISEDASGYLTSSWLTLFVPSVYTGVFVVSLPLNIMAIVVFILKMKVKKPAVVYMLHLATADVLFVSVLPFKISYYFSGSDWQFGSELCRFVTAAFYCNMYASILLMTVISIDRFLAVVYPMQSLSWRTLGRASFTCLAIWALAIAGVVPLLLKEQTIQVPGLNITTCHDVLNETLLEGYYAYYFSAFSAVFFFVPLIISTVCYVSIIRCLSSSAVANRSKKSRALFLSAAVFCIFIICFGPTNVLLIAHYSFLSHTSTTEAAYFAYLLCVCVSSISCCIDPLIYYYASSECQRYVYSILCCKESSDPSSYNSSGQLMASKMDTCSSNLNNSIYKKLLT
Procedure: Data was analyzed by 2-sided paired T-tests. Normal levels of NT-proBNP ≤125 pg/mL.
The TRIP-PCI (Thrombin Receptor Inhibitory Pepducin in PCI) Phase 2 trial (Kuliopulos et al., Arterioscler. Thromb. Vasc. Biol. 40(12):2990-3003, 2020), which enrolled a subset of patients with HF, was conducted to assess the safety, target engagement, and efficacy of PZ-128 in patients undergoing cardiac catheterization with intent to perform percutaneous coronary intervention (PCI). As explained above, in this randomized, double-blind, placebo-controlled, phase 2 trial, 100 patients were randomly assigned (2:1) to receive PZ-128 (0.3 mg/kg or 0.5 mg/kg), or placebo in a two-hour infusion initiated just prior to the start of cardiac catheterization. […]
In the BNP multinational study of 1568 patients presenting with dyspnea to the emergency department, BNP and NT-proBNP were the single most accurate predictors of diagnosis and severity of ADHF, and are used as a well-validated surrogate clinical efficacy endpoint in human trials (Ibrahim et al., Circ. Res. 123(5):614-629, 2018; Ibrahim et al., Circ. Heart Fail. 9(9), 2016). NT-proBNP levels were measured at baseline and 24 hours after the PZ-128 or placebo infusion was initiated and the cardiac catheterization procedure completed in the subset of patients with heart failure. […]

[2] = molecular target: T2, PAR1 (Mus musculus, UniProt P30558); assay: thoracic aortic constriction (TAC) LV pressure overload model of HFrEF in mice; type: in vivo
T2 construct: endogenous in cells; host or cells: male C57BL/6N mice, in vivo
T2 sequence (P30558 22-430): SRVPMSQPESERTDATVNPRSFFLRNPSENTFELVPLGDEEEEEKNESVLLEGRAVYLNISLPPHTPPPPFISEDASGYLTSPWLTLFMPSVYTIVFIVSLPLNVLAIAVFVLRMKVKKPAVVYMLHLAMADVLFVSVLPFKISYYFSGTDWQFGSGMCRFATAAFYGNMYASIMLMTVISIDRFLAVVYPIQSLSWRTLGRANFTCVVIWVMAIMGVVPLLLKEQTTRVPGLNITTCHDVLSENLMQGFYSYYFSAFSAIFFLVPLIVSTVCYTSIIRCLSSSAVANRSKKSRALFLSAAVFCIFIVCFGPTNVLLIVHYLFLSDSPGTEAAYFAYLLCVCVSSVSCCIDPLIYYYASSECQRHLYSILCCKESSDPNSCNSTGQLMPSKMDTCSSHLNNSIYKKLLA
Procedure: Male C57BL/6N mice were treated daily for 7 weeks with vehicle or 10 mg/kg PZ-128 sc following 25G transaortic constriction (TAC) or sham surgery (Richards et al., Scientific Reports 9(1):5844, 2019) (n=5-7). (FIG. 4A) Photomicrographs of interstitial fibrosis in cardiac sections stained with sirius red from Sham and TAC animals treated with Veh or PZ-128. (FIG. 4B) Interstitial collagen area from animals in A was quantified along with (FIG. 4C) Col1a1 expression by Q-PCR. (FIGS. 4D-4E) LV fractional shortening and ejection fraction were quantified by ECHO. (FIG. 4F) The outline of cardiomyocytes was identified by wheat germ agglutinin (WGA-green) staining with (FIG. 4G) mean myocyte area digitally quantified. (FIG. 4H) Mean weight (mg) of LV normalized to tibia length (mm).
(FIG. 5A) Photomicrographs of CD11 b+monocytes/macrophages and CD4+ T cells in Sham vs TAC in mice treated with vehicle or PZ-128 as in FIGS. 4A-4H, with CD11 b staining area quantified in FIG. 5B and T cells quantified in FIG. 5C.
TAC vs Sham mice were treated for 7 weeks with vehicle or PZ-128, and cardiac fibrosis and LV hypertrophy indices measured. […] This may indicate that unlike upstream thrombin (Dong et al., Thromb. Res. 159:58-64, 2017) or factor Xa (Yurista et al., Cardiovasc. Drugs Ther. 35(5):953-963, 2021) blockade, inhibition of PAR1 may effectively suppress cardiac hypertrophy by reducing the total ventricular mass, potentially by reducing MMP1-PAR1 driven fibrosis/remodeling and cardiac fibroblast expansion.
To obtain additional data to support PAR1 as a potentially important contributor to HF pathogenesis via inflammation, we investigated the effect of PZ-128 on monocyte/macrophage and CD4+ T cells in the 7-week TAC LV pressure overload model. As shown in FIGS. 5A-5B, there was a marked amount of CD11 b+monocytes/macrophages in the cardiac tissue from the TAC animals which was suppressed by nearly 90% by PZ-128 treatment.

[3] = 7 weeks, Q-PCR relative to GAPDH mRNA, preliminary

SMILES: CCCCCCCCCCCCCCCC(=O)N[C@@H](CCCCN)C(=O)N[C@@H](CCCCN)C(=O)N[C@@H](CO)C(=O)N[C@@H](CCCNC(=N)N)C(=O)N[C@@H](C)C(=O)N[C@@H](CC(C)C)C(=O)N[C@@H](Cc1ccccc1)C(N)=O [PZ-128, Palmitate-KKSRALF-NH2] (Palmitoyl-KKSRALF-NH2)
- change in NT-proBNP levels [1]: significant mean drop
- LV mass (adjusted for tibia length) ([2]; 10 mg/kg sc daily for 7 weeks): highly significant protective effect
- TAC-induced loss in ejection fraction by ECHO ([2]; 10 mg/kg sc daily for 7 weeks): significant protective effects
- TAC-induced loss in fractional shortening by ECHO ([2]; 10 mg/kg sc daily for 7 weeks): significant protective effects
- interstitial collagen (cardiac fibrosis) relative to vehicle ([2]; 10 mg/kg sc daily for 7 weeks): dramatic anti-fibrotic effects
- suppression of the increase in mean myocyte cross-sectional area ([2]; 10 mg/kg sc daily for 7 weeks): no effect
- Col1A1 expression relative to vehicle ([2]; 10 mg/kg sc daily for 7 weeks, Q-PCR): dramatic anti-fibrotic effects
- suppression of CD11b+ monocytes/macrophages in cardiac tissue ([2]; 7 weeks): ~90%
- CTGF gene expression [2, 3]: reduces expression
- Cyr61 gene expression [2, 3]: reduces expression
- IL-6 gene expression [2, 3]: reduces expression
- TGFβ gene expression [2, 3]: reduces expression
- TNFα gene expression [2, 3]: reduces expression
- T cell infiltration (CD4+) ([2]; 7 weeks, vehicle mice significant increases): non-significant increases
